Reference: ChEMBL document CHEMBL1136254, “Synthesis and SAR of 8-arylquinolines as potent corticotropin-releasing factor1 (CRF1) receptor antagonists” (Bioorg Med Chem Lett, 2003)
Values after ≈ are worked out from the molar mass of the structure shown.

Legend:
[1] = target: T1, Corticotropin-releasing factor receptor 1 (Homo sapiens, UniProt P34998); experiment: Binding affinity towards cloned human Corticotropin releasing factor receptor 1 expressed in CHO cells using [125I]o-CRF as the radioligand; type: cell-based
T1 sequence (P34998 whole entry): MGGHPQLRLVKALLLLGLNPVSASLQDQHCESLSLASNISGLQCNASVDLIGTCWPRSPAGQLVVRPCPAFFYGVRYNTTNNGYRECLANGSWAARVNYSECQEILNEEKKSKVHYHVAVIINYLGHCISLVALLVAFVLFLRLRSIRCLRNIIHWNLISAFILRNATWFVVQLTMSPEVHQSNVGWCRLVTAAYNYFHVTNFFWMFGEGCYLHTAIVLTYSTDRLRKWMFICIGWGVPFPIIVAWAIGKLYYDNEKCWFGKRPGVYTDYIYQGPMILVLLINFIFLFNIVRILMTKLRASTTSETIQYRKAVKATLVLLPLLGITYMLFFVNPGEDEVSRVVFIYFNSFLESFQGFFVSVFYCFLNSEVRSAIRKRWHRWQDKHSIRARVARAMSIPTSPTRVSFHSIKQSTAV

[2] = pKa value was determined; type: physicochemical
[3] = Solubility at pH 4; type: physicochemical; details: buffer
[4] = target: T1, Corticotropin-releasing factor receptor 1; experiment: Inhibition of Corticotropin releasing factor receptor 1-stimulated cAMP production; type: functional

SMILES | Ki [1] [nM] | pKa [2] | solubility [3] [µg/mL] | IC50 [4] [nM]
CCCN(CCC)c1cc(C)nc2c(-c3ccc(Cl)cc3)cccc12 | 8.9 |  |  | 
CCCN(CC1CC1)c1cc(C)nc2c(-c3c(C)cc(C)cc3C)cccc12 | 2.2 |  |  | 
CCCN(CCC)c1cc(C)nc2c(-c3cnc(N(C)C)cc3C)c(C)nn12 |  | 7.1 | 10000 (≈ 26.3 mM) | 
CSc1cc(C)nc2c(-c3ccc(Cl)cc3Cl)cccc12 | 16 |  |  | 
COCCN(CCOC)c1cc(C)nc2c(-c3ccc(Cl)cc3Cl)cccc12 | 5.7 |  |  | 14
CCCN(CC1CC1)c1cc(C)nc2c(-c3ccc(Cl)cc3Cl)cccc12 | 0.5 |  |  | 16
CCCN(CCC)c1cc(C)nc2c(-c3ccc(OC)cc3)cccc12 | 52 |  |  | 
CCCN(CC1CC1)c1cc(C)nc2c(-c3ccc(Cl)cc3Cl)c(C)ccc12 | 2.5 |  |  | 
CCCCN(CC)c1cc(C)nc2c(-c3ccc(Cl)cc3Cl)cccc12 | 5.7 |  |  | 51
COCCN(CCOC)c1cc(C)nc2c(-c3c(C)cc(C)cc3C)cccc12 | 6.5 |  |  | 
